How the values were obtained:
lettuce = assay: IAA sensitivity test on lettuce; format: in vivo
Experimental: disinfecting seeds of the lettuce with 5% sodium hypochlorite and putting the seeds of the lettuce in another sterilized Petri dish in which a filter paper is disposed; adding 3 mL of 0.03 μM, 3 μM, 30 μM, and 300 μM of IAA aqueous solutions respectively; moving another sterilized Petri dish into another plant growth box for 3 days; and measuring a germination rate and a height of each lettuce and a length of a root of each lettuce.

rice seedlings = assay: IAA sensitivity test on rice seedlings; format: in vivo; conditions: 4 days
Experimental: Taking rice and lettuce for example, IAA sensitivity of the microbial preparation is tested in steps of: disinfecting and germinating rice seedlings; putting the rice seedlings in a sterilized Petri dish in which a filter paper is disposed; […]; moving the sterilized Petri dish into a plant growth box for 4 days; measuring an average height of buds of the rice seedlings and an average height of roots of the rice seedlings;

SMILES: O=C(O)Cc1c[nH]c2ccccc12 [IAA]
- height of lettuce sprouts (lettuce; IAA 0.03 μM, 3 days (no IAA: 5.3 mm)): 3.5 mm
- length of lettuce roots (lettuce; IAA 0.03 μM, 3 days (no IAA: 14.8 mm)): 8.8 mm
- germination rate of the seeds of the lettuce (lettuce; IAA 300 μM, 3 days (no IAA: 78%)): 13%
- growth of the roots of the rice seedlings (rice seedlings; IAA 0.03 μM to 30 μM, FIG. 1): does not promote a growth of the roots
- growth of the roots of the rice seedlings (rice seedlings; IAA 300 μM): limited

Source: US20210403858A1, “Bacillus strain and microbial preparation of bacillus and method of using microbial preparation” (ROLLING GREENS CO., LTD., priority 2020, published 2021)
